Where two headings read alike, the source gives them in different places.
Experiments:
MraY = biological target: T1, MraY (Escherichia coli, UniProt P0A6W3); test: Assay of MraY using HP20ss hydrophobic beads; format: biochemical, E. coli
T1 construct: MraY activity measured in membranes prepared from wild-type E. coli; endogenous in cells
T1 sequence (P0A6W3 1-360): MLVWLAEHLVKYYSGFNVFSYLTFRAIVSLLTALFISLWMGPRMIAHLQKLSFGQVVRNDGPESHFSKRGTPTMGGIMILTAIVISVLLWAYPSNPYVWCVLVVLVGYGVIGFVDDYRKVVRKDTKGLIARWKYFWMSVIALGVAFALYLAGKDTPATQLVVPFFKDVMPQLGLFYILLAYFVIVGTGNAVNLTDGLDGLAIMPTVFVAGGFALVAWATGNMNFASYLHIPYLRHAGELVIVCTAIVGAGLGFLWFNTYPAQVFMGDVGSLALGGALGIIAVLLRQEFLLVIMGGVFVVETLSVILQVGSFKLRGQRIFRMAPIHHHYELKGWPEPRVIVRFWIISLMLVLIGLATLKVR
Method: The reaction catalyzed transfer and use of the radiotracer are shown in FIG. 2, Panel A. The general course of manipulations are diagramed in FIG. 2, Panel D and described in the text. The reaction mixture for the MraY assay included 100 mM Tris, pH 7.5, 30 mM MgCl2, 0.15% Triton X-100, 100 μg/ml Phosphatidyl Glycerol, 40 μM decaprenol phosphate, 14 μM UDP-MurNAC-[^14C]pentapeptide (prepared as described above) and typically 0.5 mg/mL of E. coli cell membranes in a final volume of 50 μL. The phosphatidyl glycerol and decaprenol phosphate, which are supplied in organic solvent, were dried in the reaction tube before the addition of the other components.
The HP20ss resin used to isolate the Lipid I product from the above reaction mixture was equilibrated before use. Briefly, the dry resin was mixed thoroughly with excess methanol in a beaker and allowed to settle for 45 min. […]
For assays whereby the reaction is analyzed at various times, a larger reaction volume was prepared (50 μL is typically appropriate for each time point). […] The filterplate was then quantitated by liquid scintillation spectrometry with a TOPCOUNT (PERKIN ELMER LIFE SCIENCES, Downers Grove, Ill.) using 200 μL of scintillation cocktail (MICROSCINT 40, PERKIN ELMER LIFE SCIENCES, Downers Grove, Ill.) per well.

MraY/MurG couple = test: Coupled assay of MraY and MurG using HP20ss beads; format: biochemical, E. coli; conditions: titration of the MraY/MurG couple, 0.5 mg/mL protein at 10 min time (FIG. 5, Panel B)
Method: The MraY/MurG coupled assay reaction procedure was identical to that described above for the assay of MraY. However, quantitation of the coupled system was performed by monitoring the incorporation of radiolabeled MurG co-substrate UDP-N-[1-^14C]acetyl-glucosamine into the lipophilic product Lipid II. Accordingly, this assay mixture was modified to contain 100 mM Tris, pH 7.5, 30 mM MgCl2, 0.15% Triton X-100, 40 μM decaprenol phosphate, 100 μM UDP-MurNAc-pentapeptide, 100 ug/ml phosphatidyl glycerol, and 20 μM, 0.1 μCi UDP-N-[1-^14C]acetyl-glucosamine and typically 0.5 mg/mL of E. coli cell membranes in a final volume of 50 μL. All other procedures, times and temperatures were identical to those described for the MraY assay.

With tunicamycin the IC50 (MraY; membranes from wild-type E. coli, bead format (text to FIG. 5, Panel A)) was “approximately 1 μg/mL” and the IC50 (MraY; titration of the MraY assay, 0.5 mg/mL protein at 10 min time (FIG. 5, Panel A), read-out: IC50) was 1100 nM.
With ramoplanin the IC50 (MraY/MurG couple) was “approximately 17 μg/mL” and the IC50 (MraY/MurG couple; listed as ramoplainin) was 17 µg/mL.

Reference: patent US20060147934A1, “High speed assay for glycosyl transferases” (priority 2003, published 2006)
